Results as given in ChEMBL document CHEMBL4804284.
The source made the active and inactive calls. The calls are words filed in the database; no cut-off is given here.

Experiments:
[1] = biological target: Transient receptor potential cation channel subfamily M member 6 (Homo sapiens) (UniProt Q9BX84); experiment: Inhibition of DNA-tagged human TRPM6 assessed as percent of control at 50000 nM by qPCR analysis relative to control; design: scale not given: the % may be the effect or the level left
[2] = biological target: Tyrosine-protein kinase SYK (Homo sapiens) (UniProt P43405); experiment: Inhibition of DNA-tagged human SYK assessed as percent of control at 50000 nM by qPCR analysis relative to control; design: scale not given: the % may be the effect or the level left
[3] = biological target: Cytoplasmic tyrosine-protein kinase BMX (Homo sapiens) (UniProt P51813); experiment: Inhibition of DNA-tagged human BMX assessed as percent of control at 50000 nM by qPCR analysis relative to control; design: scale not given: the % may be the effect or the level left
[4] = tested on: Receptor-type tyrosine-protein kinase FLT3 (Homo sapiens), P36888 [K663Q]; experiment: Inhibition of DNA-tagged human FLT3 K663Q mutant assessed as percent of control at 50000 nM by qPCR analysis relative to control; design: scale not given: the % may be the effect or the level left
[5] = tested on: Epidermal growth factor receptor (Homo sapiens), P00533 [UNDEFINED MUTATION]; experiment: Inhibition of DNA-tagged human EGFR L747-T751del/Sins double mutant assessed as percent of control at 50000 nM by qPCR analysis relative to control; design: scale not given: the % may be the effect or the level left
[6] = tested on: OCI-AML-3; experiment: Cytotoxicity against human OCI-AML-3 cells at 0.1-100 uM assessed as decrease in cell viability relative to control; format: functional, cell-based
[7] = biological target: Fibroblast growth factor receptor 1 (Homo sapiens) (UniProt P11362); experiment: Inhibition of DNA-tagged human FGFR1 assessed as percent of control at 50000 nM by qPCR analysis relative to control; design: scale not given: the % may be the effect or the level left
[8] = biological target: Phosphatidylinositol 5-phosphate 4-kinase type-2 beta (Homo sapiens) (UniProt P78356); experiment: Inhibition of DNA-tagged human PIP5K2B assessed as percent of control at 50000 nM by qPCR analysis relative to control; design: scale not given: the % may be the effect or the level left
[9] = biological target: Mitogen-activated protein kinase kinase kinase 19 (Homo sapiens) (UniProt Q56UN5); experiment: Inhibition of DNA-tagged human YSK4 assessed as percent of control at 50000 nM by qPCR analysis relative to control; design: scale not given: the % may be the effect or the level left
[10] = biological target: Serine/threonine-protein kinase 16 (Homo sapiens) (UniProt O75716); experiment: Inhibition of DNA-tagged human STK16 assessed as percent of control at 50000 nM by qPCR analysis relative to control; design: scale not given: the % may be the effect or the level left
[11] = biological target: Phosphatidylinositol 3-kinase C2 domain-containing subunit gamma (Homo sapiens) (UniProt O75747); experiment: Inhibition of DNA-tagged human PIK3C2G assessed as percent of control at 50000 nM by qPCR analysis relative to control; design: scale not given: the % may be the effect or the level left
[12] = biological target: Aurora kinase C (Homo sapiens) (UniProt Q9UQB9); experiment: Inhibition of DNA-tagged human AURKC assessed as percent of control at 50000 nM by qPCR analysis relative to control; design: scale not given: the % may be the effect or the level left
[13] = biological target: TRAF2 and NCK-interacting protein kinase (Homo sapiens) (UniProt Q9UKE5); experiment: Inhibition of DNA-tagged human TNIK assessed as percent of control at 50000 nM by qPCR analysis relative to control; design: scale not given: the % may be the effect or the level left
[14] = biological target: STE20-like serine/threonine-protein kinase (Homo sapiens) (UniProt Q9H2G2); experiment: Inhibition of DNA-tagged human SLK assessed as percent of control at 50000 nM by qPCR analysis relative to control; design: scale not given: the % may be the effect or the level left
[15] = biological target: Homeodomain-interacting protein kinase 4 (Homo sapiens) (UniProt Q8NE63); experiment: Inhibition of DNA-tagged human HIPK4 assessed as percent of control at 50000 nM by qPCR analysis relative to control; design: scale not given: the % may be the effect or the level left
[16] = biological target: Calcium/calmodulin-dependent protein kinase type II subunit delta (Homo sapiens) (UniProt Q13557); experiment: Inhibition of DNA-tagged human CAMK2D assessed as percent of control at 50000 nM by qPCR analysis relative to control; design: scale not given: the % may be the effect or the level left
[17] = biological target: Serine/threonine-protein kinase 24 (Homo sapiens) (UniProt Q9Y6E0); experiment: Inhibition of DNA-tagged human MST3 assessed as percent of control at 50000 nM by qPCR analysis relative to control; design: scale not given: the % may be the effect or the level left
[18] = biological target: Fibroblast growth factor receptor 4 (Homo sapiens) (UniProt P22455); experiment: Inhibition of DNA-tagged human FGFR4 assessed as percent of control at 50000 nM by qPCR analysis relative to control; design: scale not given: the % may be the effect or the level left
[19] = biological target: Bone morphogenetic protein receptor type-1B (Homo sapiens) (UniProt O00238); experiment: Inhibition of DNA-tagged human BMPR1B assessed as percent of control at 50000 nM by qPCR analysis relative to control; design: scale not given: the % may be the effect or the level left
[20] = biological target: SNF-related serine/threonine-protein kinase (Homo sapiens) (UniProt Q9NRH2); experiment: Inhibition of DNA-tagged human SNRK assessed as percent of control at 50000 nM by qPCR analysis relative to control; design: scale not given: the % may be the effect or the level left
[21] = biological target: Serine/threonine-protein kinase Nek5 (Homo sapiens) (UniProt Q6P3R8); experiment: Inhibition of DNA-tagged human NEK5 assessed as percent of control at 50000 nM by qPCR analysis relative to control; design: scale not given: the % may be the effect or the level left
[22] = biological target: Serine/threonine-protein kinase LATS1 (Homo sapiens) (UniProt O95835); experiment: Inhibition of DNA-tagged human LATS1 assessed as percent of control at 50000 nM by qPCR analysis relative to control; design: scale not given: the % may be the effect or the level left
[23] = biological target: Death-associated protein kinase 3 (Homo sapiens) (UniProt O43293); experiment: Inhibition of DNA-tagged human DAPK3 assessed as percent of control at 50000 nM by qPCR analysis relative to control; design: scale not given: the % may be the effect or the level left
[24] = tested on: Leucine-rich repeat serine/threonine-protein kinase 2 (Homo sapiens), Q5S007 [G2019S]; experiment: Inhibition of DNA-tagged human LRRK2 G2019S mutant assessed as percent of control at 50000 nM by qPCR analysis relative to control; design: scale not given: the % may be the effect or the level left
[25] = biological target: TGF-beta receptor type-1 (Homo sapiens) (UniProt P36897); experiment: Inhibition of DNA-tagged human TGFBR1 assessed as percent of control at 50000 nM by qPCR analysis relative to control; design: scale not given: the % may be the effect or the level left
[26] = biological target: Tyrosine-protein kinase ITK/TSK (Homo sapiens) (UniProt Q08881); experiment: Inhibition of DNA-tagged human ITK assessed as percent of control at 50000 nM by qPCR analysis relative to control; design: scale not given: the % may be the effect or the level left
[27] = biological target: Serine/threonine-protein kinase SIK1 (Homo sapiens) (UniProt P57059); experiment: Inhibition of DNA-tagged human SIK assessed as percent of control at 50000 nM by qPCR analysis relative to control; design: scale not given: the % may be the effect or the level left
[28] = biological target: SRSF protein kinase 1 (Homo sapiens) (UniProt Q96SB4); experiment: Inhibition of DNA-tagged human SRPK1 assessed as percent of control at 50000 nM by qPCR analysis relative to control; design: scale not given: the % may be the effect or the level left
[29] = tested on: HEL; experiment: Cytotoxicity against human HEL cells at 0.1-100 uM assessed as decrease in cell viability relative to control; format: functional, cell-based
[30] = biological target: Hormonally up-regulated neu tumor-associated kinase (Homo sapiens) (UniProt P57058); experiment: Inhibition of DNA-tagged human HUNK assessed as percent of control at 50000 nM by qPCR analysis relative to control; design: scale not given: the % may be the effect or the level left

Chain of Phosphatidylinositol 5-phosphate 4-kinase type-2 beta (Homo sapiens) (P78356 whole entry): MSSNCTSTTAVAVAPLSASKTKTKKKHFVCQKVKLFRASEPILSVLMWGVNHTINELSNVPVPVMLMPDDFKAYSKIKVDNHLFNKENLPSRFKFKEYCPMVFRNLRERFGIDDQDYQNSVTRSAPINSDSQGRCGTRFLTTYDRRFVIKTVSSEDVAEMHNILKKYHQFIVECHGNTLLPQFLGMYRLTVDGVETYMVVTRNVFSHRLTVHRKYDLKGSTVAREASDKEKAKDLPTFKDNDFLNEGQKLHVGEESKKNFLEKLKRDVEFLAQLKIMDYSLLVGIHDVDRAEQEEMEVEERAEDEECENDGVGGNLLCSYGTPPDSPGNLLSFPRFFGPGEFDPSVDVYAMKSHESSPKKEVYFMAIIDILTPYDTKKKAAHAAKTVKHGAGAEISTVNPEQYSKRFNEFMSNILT
Chain of Fibroblast growth factor receptor 4 (Homo sapiens) (P22455 22-802 limits assumed): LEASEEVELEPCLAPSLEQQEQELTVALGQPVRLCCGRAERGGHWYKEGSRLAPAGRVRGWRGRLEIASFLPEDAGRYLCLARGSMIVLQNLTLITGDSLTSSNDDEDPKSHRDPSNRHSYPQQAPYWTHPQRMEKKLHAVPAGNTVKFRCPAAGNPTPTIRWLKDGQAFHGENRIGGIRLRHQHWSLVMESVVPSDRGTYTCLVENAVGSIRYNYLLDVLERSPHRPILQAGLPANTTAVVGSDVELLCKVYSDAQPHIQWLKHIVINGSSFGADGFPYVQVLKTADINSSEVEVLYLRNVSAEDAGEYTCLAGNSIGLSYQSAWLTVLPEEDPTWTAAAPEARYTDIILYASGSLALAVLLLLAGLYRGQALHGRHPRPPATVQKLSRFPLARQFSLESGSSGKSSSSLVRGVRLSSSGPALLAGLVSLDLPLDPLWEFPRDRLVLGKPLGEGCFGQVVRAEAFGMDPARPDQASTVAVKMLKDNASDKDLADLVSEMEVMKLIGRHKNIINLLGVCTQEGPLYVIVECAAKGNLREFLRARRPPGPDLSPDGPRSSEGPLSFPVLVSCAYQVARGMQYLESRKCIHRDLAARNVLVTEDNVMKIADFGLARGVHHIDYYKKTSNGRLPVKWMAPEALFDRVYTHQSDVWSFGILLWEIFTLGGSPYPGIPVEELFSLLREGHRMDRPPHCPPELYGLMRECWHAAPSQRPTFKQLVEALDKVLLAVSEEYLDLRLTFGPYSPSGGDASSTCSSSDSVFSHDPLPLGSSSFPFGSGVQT
Chain of Tyrosine-protein kinase ITK/TSK (Homo sapiens) (Q08881 whole entry): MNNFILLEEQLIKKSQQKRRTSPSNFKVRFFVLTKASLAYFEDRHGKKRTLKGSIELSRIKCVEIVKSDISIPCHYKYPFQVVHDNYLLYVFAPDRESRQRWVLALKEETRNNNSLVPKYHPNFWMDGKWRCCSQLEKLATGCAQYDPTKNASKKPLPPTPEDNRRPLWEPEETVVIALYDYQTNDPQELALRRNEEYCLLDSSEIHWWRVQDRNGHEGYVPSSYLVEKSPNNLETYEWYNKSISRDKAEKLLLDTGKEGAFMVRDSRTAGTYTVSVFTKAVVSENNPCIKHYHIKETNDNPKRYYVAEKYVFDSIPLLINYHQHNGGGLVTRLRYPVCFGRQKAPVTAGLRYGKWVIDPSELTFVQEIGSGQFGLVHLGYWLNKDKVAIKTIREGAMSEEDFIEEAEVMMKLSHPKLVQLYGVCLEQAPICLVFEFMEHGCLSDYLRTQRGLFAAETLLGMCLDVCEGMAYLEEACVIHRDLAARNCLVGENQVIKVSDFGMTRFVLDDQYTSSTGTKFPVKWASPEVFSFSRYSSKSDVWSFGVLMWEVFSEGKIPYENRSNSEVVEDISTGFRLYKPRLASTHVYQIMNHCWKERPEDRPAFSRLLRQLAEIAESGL
Chain of Homeodomain-interacting protein kinase 4 (Homo sapiens) (Q8NE63 whole entry): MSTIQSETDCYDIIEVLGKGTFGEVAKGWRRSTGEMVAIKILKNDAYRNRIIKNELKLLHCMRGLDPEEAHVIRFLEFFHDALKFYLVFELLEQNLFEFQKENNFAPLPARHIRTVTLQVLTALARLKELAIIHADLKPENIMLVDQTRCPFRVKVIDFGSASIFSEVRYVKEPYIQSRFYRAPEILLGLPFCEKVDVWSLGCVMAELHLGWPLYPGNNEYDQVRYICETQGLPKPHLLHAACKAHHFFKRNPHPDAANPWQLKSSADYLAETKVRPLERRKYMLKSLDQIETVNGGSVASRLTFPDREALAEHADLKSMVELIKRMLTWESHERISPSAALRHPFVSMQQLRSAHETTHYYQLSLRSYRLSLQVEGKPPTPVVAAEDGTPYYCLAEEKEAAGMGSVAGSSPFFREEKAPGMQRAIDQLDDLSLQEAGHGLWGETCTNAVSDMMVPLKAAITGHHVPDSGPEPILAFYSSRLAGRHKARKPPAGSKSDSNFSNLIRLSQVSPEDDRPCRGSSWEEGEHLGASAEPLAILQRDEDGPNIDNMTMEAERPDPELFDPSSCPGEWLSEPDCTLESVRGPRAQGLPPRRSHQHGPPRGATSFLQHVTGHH
Chain of Epidermal growth factor receptor (Homo sapiens), P00533 [UNDEFINED MUTATION] (P00533 whole entry, looked up, stated change not applied): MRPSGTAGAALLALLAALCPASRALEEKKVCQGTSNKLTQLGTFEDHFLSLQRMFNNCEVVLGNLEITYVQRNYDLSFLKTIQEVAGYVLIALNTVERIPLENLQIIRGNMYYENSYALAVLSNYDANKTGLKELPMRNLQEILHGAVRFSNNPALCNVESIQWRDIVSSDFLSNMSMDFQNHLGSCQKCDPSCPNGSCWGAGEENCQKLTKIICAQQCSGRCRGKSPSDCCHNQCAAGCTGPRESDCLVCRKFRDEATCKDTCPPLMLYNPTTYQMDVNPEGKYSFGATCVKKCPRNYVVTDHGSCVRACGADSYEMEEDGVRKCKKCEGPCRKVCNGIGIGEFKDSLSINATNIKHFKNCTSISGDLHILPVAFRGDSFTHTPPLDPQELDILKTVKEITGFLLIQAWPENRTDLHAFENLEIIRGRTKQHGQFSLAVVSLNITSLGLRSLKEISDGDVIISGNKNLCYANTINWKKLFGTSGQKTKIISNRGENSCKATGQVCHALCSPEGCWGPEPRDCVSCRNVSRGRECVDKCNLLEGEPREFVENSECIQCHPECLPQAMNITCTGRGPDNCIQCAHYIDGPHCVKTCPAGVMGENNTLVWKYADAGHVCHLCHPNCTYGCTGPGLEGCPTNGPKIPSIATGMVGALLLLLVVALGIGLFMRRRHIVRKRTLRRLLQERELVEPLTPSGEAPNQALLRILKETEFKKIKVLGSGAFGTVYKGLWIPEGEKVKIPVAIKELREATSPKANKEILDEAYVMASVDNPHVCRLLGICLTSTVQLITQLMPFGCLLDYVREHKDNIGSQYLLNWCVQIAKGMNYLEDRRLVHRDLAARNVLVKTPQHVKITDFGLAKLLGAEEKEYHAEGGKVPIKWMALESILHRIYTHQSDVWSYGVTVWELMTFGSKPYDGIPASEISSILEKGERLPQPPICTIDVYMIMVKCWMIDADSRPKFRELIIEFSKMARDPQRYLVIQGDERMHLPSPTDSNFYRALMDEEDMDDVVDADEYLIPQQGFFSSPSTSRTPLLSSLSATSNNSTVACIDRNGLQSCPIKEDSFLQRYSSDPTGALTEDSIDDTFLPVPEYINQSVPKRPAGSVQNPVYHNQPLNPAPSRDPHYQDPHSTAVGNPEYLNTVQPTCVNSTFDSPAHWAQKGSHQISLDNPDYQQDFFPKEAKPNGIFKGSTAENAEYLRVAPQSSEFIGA
Chain of STE20-like serine/threonine-protein kinase (Homo sapiens) (Q9H2G2 whole entry, looked up): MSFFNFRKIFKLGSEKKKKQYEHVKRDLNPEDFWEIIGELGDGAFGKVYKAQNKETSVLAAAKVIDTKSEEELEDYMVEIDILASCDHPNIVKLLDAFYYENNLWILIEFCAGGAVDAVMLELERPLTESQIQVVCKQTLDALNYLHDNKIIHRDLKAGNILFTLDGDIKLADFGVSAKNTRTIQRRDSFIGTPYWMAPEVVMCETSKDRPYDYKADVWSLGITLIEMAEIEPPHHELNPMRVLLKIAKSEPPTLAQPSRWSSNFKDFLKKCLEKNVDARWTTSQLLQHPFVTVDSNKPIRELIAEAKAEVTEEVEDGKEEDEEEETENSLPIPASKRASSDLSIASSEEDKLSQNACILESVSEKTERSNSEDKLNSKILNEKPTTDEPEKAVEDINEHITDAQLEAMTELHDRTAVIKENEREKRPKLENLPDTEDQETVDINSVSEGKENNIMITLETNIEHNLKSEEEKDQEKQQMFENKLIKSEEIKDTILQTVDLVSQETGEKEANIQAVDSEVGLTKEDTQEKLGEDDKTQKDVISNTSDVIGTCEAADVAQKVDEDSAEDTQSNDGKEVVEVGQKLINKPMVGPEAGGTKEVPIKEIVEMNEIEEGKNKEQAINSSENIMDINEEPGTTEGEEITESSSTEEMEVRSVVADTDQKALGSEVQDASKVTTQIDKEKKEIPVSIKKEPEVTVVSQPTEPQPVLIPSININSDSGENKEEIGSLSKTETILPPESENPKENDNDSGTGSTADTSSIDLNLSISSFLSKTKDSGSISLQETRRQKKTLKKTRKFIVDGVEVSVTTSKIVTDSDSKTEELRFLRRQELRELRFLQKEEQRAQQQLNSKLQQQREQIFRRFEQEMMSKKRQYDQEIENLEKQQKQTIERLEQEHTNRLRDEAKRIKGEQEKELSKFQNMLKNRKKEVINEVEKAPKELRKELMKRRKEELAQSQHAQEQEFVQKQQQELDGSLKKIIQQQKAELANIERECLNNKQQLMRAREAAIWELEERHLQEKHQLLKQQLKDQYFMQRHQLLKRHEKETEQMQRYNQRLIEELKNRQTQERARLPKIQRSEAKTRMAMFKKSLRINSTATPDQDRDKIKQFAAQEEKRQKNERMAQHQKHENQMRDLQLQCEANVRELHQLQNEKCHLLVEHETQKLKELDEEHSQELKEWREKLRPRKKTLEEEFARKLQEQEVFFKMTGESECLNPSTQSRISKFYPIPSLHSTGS

Compound: CN1C(=O)/C(=C2/C(=O)Nc3ccccc32)c2ccccc21
- Activity [1]: 78%
- Activity [2]: 85%
- Activity [3]: 89%
- Activity [4]: 91%
- Activity [5]: 87%
- Activity [6]: Active
- Activity [7]: 100%
- Activity [8]: 100%
- Activity [9]: 91%
- Activity [10]: 89%
- Activity [11]: 99%
- Activity [12]: 94%
- Activity [13]: 100%
- Activity [14]: 100%
- Activity [15]: 100%
- Activity [16]: 80%
- Activity [17]: 88%
- Activity [18]: 100%
- Activity [19]: 89%
- Activity [20]: 81%
- Activity [21]: 96%
- Activity [22]: 100%
- Activity [23]: 93%
- Activity [24]: 74%
- Activity [25]: 100%
- Activity [26]: 78%
- Activity [27]: 93%
- Activity [28]: 100%
- Activity [29]: Active
- Activity [30]: 98%
